# Data taken from article PMC4674085, “Towards Prebiotic Catalytic Amyloids Using High Throughput Screening” (PLoS ONE, 2015).
# Ends that are not written are not given here.
# Key:
# [1] = Plate reader 4NPA hydrolysis kinetics of purified peptide amyloids at pH 7.3; assay type: biochemical; settings: 4NPA hydrolysis, pH 7.3 HEPES with zinc(II), 20 μM purified peptide
# Experimental: The reaction buffer consisted of the same buffer as the fibrillization buffer without ZnCl2 and with 1.33 mM 4NPA prepared from a 100 mM stock in CH3CN. The samples of the amyloid library were mixed 1:3 with the reaction buffer yielding 40 μM peptide and, when present 250 μM zinc(II). The absorbance measurements were performed in a BMG Pherastar platereader with a 400 nm band-pass filter (10 nm bandwidth) in 96-well Nunclon Delta surface plates or 384-well Greiner Bio-One non-bind black μclear plates.
# The kinetics assays performed on the purified peptides were prepared similarly except that the peptide concentration was 20 μM in the reaction. Furthermore, the various substrate concentrations and replicate samples were randomly distributed over the plate to minimize systematic errors. Various 4NPA concentrations (i.e. 0.1 mM, 0.2 mM, 0.4 mM, 0.6 mM, 1.0 mM) were added from a 100 times stock so that the final CH3CN concentration was always 1%. The linear part of the hydrolysis activity was fit with an extinction coefficient of ε = 9700 M^-1cm^-1 and corrected for the background reaction rate of buffer alone (v bg = 5.0 × 10^-6 Ms^-1) to obtain the initial reaction rate v 0. The average of the initial reaction rates at each substrate concentration were then fit to the Michaelis-Menten type kinetics to obtain k cat, K M and k cat/K M always calculated per monomer peptide. The background reaction rate was obtained similarly using 5 replicates.
# [2] = Time-dependent 4NPA hydrolysis rate during fibrillization; assay type: biochemical; settings: 50 μM peptide, 50 mM HEPES pH 7.3, 0.5 mM ZnCl2, 1 mM 4NPA, derivative of A400
# Experimental: For more direct evidence that the amyloid is the catalytically active state, we attempted to measure the catalysis rate during the aggregation of 35 in order to correlate the amyloid formation with an increase in hydrolytic activity. Since the aggregation is too fast to measure a steady-state hydrolysis rate, an instantaneous time-dependent rate of 4NPA hydrolysis was calculated from the derivative of the A400 measurements (Fig 3A). In parallel, an identical sample was monitored at 218 nm for the β-strand-typical ellipticity (Fig 3C). Note that the absorbance of 50 mM HEPES prevented the measurement of a full spectrum (190–260 nm) under the identical aggregation conditions, however when performed with 10 mM HEPES, the spectrum clearly indicates a move towards increasing β-structure upon mixing the peptide with buffer at pH 7.3 (Figure B in S1 File). […]
# Fig 3 Parallel kinetics of fibrillization and hydrolysis activity. Kinetics of fibrillization measured by CD (c) matches the appearance of the 4NPA hydrolysis activity (a). a) A stock of 35 at 200 μM in 10 mM HCl was diluted to a final concentration of 50 μM into 50 mM HEPES pH 7.3 with 0.5 mM ZnCl2 and 1 mM 4NPA. After ca. 10 s mixing time, the hydrolysis of 4NPA was recorded every 1 s for 20 min at 400 nm and the first derivative of this signal (the instantaneous rate) is plotted as a function of time. […]
# [3] = Circular dichroism (CD), secondary structure of aggregates; assay type: physicochemical; settings: 50 μM peptide in 10 mM HCl, time-stable spectrum
# [4] = Solubility of binary alternating Val/Ser peptides (supernatant vs precipitate, quantitated by total hydrolysis); assay type: physicochemical; settings: 200 μM peptide, 50 mM HEPES buffer pH 7.3, fibrillization for 2 days
# From the text: A high β-aggregation propensity is essential for a combinatorial peptide library in the form of amyloids. To satisfy this requirement we profited from the well-documented observation that in aqueous environments, binary alternating sequences of hydrophobic-hydrophilic residues are prone to oligomerize into amphipathic β-structures. In these structures, the hydrophobic residues are buried at the interface of two β-sheets, leaving the hydrophilic residues on the surface. In keeping with the theme of a prebiotic fold, we wanted to use the shortest peptides that still guaranteed a high percentage of amyloidogenic peptides in the library. […]
# For peptides that contain Tyr the concentration of the peptide was measured by diluting a 3–5 mM DMSO stock of the peptide 20-fold into 10 mM HCl and quickly measuring the UV spectrum to minimize the potential for aggregation (ε276 = 1500 M^-1cm^-1). Peptide 36 was quantitated during purification by C18 reversed phase HPLC using a calculated extinction coefficient of ε214 = 13963 M^-1cm^-1. The quantification of the VS peptides in Table 1 and peptide 34 was performed by total hydrolysis in 6 M HCl at 160°C for 2 h. The hydrolyzed samples were analyzed by C18 reversed-phase and the amount of Val or Ile was calculated by comparing the chromatographic peak areas to amino acid samples of known quantity.
Substance,"k cat/K M ([1]; 0.1-1.0 mM 4NPA, 1% CH3CN, A400, Michaelis-Menten fit, per monomer peptide, triplicate (duplicate for 8, 27, 34, 35))",K M ([1]; Michaelis-Menten fit),"k cat ([1]; Michaelis-Menten fit, per monomer peptide)",activity of the monomeric peptide (by extrapolation to t = 0) [2],CD spectrum in 10 mM HCl [3],"peptide in solution after centrifugation at 25,000 g [4]"
"Ac-YVHVHVAV-NH2 [Peptide 35, Ac-YVHVHVAV-CONH2]",7.38 ± 0.63 M⁻¹ s⁻¹,630 ± 100 µM,0.463±0.039 10^-2s^-1,not significantly above the background hydrolysis,mostly random coil,
VSVSVSV-NH2 [VSVSVSV-CONH2],,,,,,less than 5%
